Measurements taken from patent publication US20230405078A1, “DETECTION AND TREATMENT OF INTESTINAL FIBROSIS” (THE REGENTS OF THE UNIVERSITY OF CALIFORNIA, priority 2020, published 2023).
Entries after “also recorded” stand apart in the source; their conditions may differ.

What was measured:
[1] = tested on: CCD-18Co fibroblasts; assay: Elafin exposure of serum-starved CCD-18Co fibroblasts (Example 1); type: cell-based, human; conditions: elafin 0.1-3 μg/ml, 24 hours, no TGF-β1
Protocol: FIG. 6. Elafin promotes fibrogenesis in human colonic fibroblasts. (A) The human colonic CCD-18Co fibroblasts were incubated with 100 μl/ml (10%) of human sera from normal, stricturing CD, and non-stricturing CD patients in serum-free DMEM for 24 hours. (B) The human colonic CCD-18Co fibroblasts were incubated with 100 μl/ml (10%) of human sera from high elafin CD group (>8000 pg/ml) and low elafin CD group (<8000 pg/ml) in serum-free DMEM for 24 hours. (C) Serum-starved CCD-18Co fibroblasts were pretreated with 15 μg/ml of anti-elafin neutralizing antibody or control antibody for 30 minutes, followed by exposure to (100 μl/ml) human sera from normal and stricturing CD patients for 24 hours. Six serum donors per group. (D) Serum-starved CCD-18Co fibroblasts were exposed to elafin (0.1-3 μg/ml) for 24 hours. Pro-COL1A1 protein levels in cell lysates were determined by ELISA. (E) Serum-starved primary human intestinal fibroblasts from CD patients were exposed to elafin for 24 hours. mRNA expression was determined by real-time RT-PCR.
Human CCD-18Co intestinal fibroblasts (ATCC) (2×10^6 cells/plate) were cultured in minimal essential medium Eagle's medium (MEM) containing 10% fetal bovine serum (FBS) and 1% penicillin-streptomycin (P/S) (Invitrogen). […]

[2] = tested on: 3T3-L1 adipocytes; assay: Lipid accumulation and gene expression in 3T3-L1 adipocytes; type: cell-based, mouse; conditions: 24-h; elafin 10 ng/ml, miRNA mimics 75 ng/ml
Description: FIG. 34. Immune cell-derived miR181b-5p and miR219-5p induced leptin mRNA expression in 3T3-L1 adipocytes. (A) Mouse serum exosomal miRNA expression was profiled by a PCR array. miR219-5p, miR210-3p, and miR181-5p were undetectable in the serum exosomes of HFD-treated mice without elafin overexpression. These three miRNAs were detected in the serum exosomes of elafin-overexpressing HFD-treated mice only. Each group consists of 6 mice. […] (C) The positive correlation between serum elafin levels and miRNAs (miR181b-5p and miR210-3p, but not miR219-5p) in the men with T2DM. […]
Cell culture experiments. […] Adipocyte lipid accumulation was determined using Oil Red O staining, as described previously.
Quantitative real-time reverse transcription-polymerase chain reaction (RT-PCR) and miRNA PCR array. […] Quantitative PCR reactions were run with Fast Universal PCR master mix (#4352042, ThermoFisher) in a Bio-Rad CFX384 using cataloged primers (ThermoFisher) for human elafin (Hs00160066_m1), human leptin (Hs00174877_m1), mouse Cd36 (Mm00432403_m1), mouse adiponectin (Mm00456425_m1), mouse leptin (Mm00434759_m1), and mouse Tnf (Mm00443258_m1). Relative mRNA quantification was performed by comparing test groups and control group, after normalization with endogenous control gene human 18S (Hs99999901_s1) or mouse Gapdh (Mm99999915_g1).

[3] = cited from earlier work

In the case of “Elafin: small (6 kDa) human elastase-specific protease inhibitor and antimicrobial peptide; active form SEQ ID NO: 2 (AQEPVKGPVSTKPGSCPIILIRCAMLNPPNRCLKDTDCPGIKKCCEGSCGMACFVPQ; listed as Homo sapiens)”, the “pro-collagen 1A1 protein expression” value [1] is given as “significantly increased”, the “lipid accumulation; Cd36 and adiponectin mRNA expression” value [2] is given as “affected neither” and the “increase of plasma concentration” value ([3]; 200 mg/person intravenous) is given as over 3000 fold. The “adverse effects / tolerability” value ([3]; 200 mg/person) was “does not cause any adverse effects; also recorded: well tolerated”.
